{"source": "patent US11096390B2", "about": "“Method of controlling weeds in a cultivation area of field corn” (SUMITOMO CHEMICAL COMPANY, LIMITED, priority 2019, dated 2021)", "key": {"[1]": {"test_system": "field corn, popcorn, sweet corn, and waxy corn", "assay": "Example 2 pot test, spray the day before sowing corns: injuries on various corns", "format": "in vivo, Zea mays", "conditions": "25 or 50 g per hectare; applied the day before sowing corns; 21 days after sowing corns", "text": "(§1) The evaluation of the herbicidal effect and crop injury is classified into 0 to 100, where the numeral “0” indicates no or little difference in the state of germination or growth of weeds or corn under test at the time of examination as comparison with untreated weeds or corn, respectively and the numeral “100” indicates the complete death of weeds or corn under test or the complete inhibition of their germination or growth of weeds or corn under test.\n(§2) A pot is filled with a soil, and then Palmer amaranth, waterhemp, kochia, common ragweed and marestail are sown thereto. On the same day, trifludimoxazin spray liquid (prepared by diluting trifludimoxazin formulation (an aqueous suspension concentrate containing 500 g/L of trifludimoxazin) with water) is uniformly applied onto the pot using sprayer at the amount of 200 L per hectare so that the application rate of trifludimoxazin may be 25 or 50 g per hectare. On the next day, field corn, popcorn, sweet corn, and waxy corn are sown. 21 days after sowing corns, herbicidal effects and injuries on various corns are investigated."}, "kochia": {"test_system": "kochia", "assay": "Pot test, soil spray after sowing: herbicidal effect on kochia", "format": "in vivo, Kochia scoparia", "text": "as §1\n(§3) Three varieties of field corn, two varieties of popcorn, two varieties of sweet corn, two varieties of waxy corn, palmer amaranth, kochia and large crabgrass were sown to a pot filled with a soil. On the next day, a trifludimoxazin spray liquid (prepared by diluting an emuslfiable concentrate of trifludimoxazin with water) was uniformly sprayed onto the pot at the amount of 200 L per hectare so that the application rate of trifludimoxazin might be 50 g per hectare. 12 days after treatment, herbicidal effects on weeds and injury on corns were investigated. As a result, the herbicidal effect on each of the three weeds was 100.\n(§4) Four varieties of field corn, two varieties of popcorn, two varieties of sweet corn, palmer amaranth, kochia and large crabgrass were sown to a pot filled with a soil. […]"}, "waxy corn": {"test_system": "waxy corn", "assay": "Pot test, soil spray after sowing: crop injury on waxy corn", "format": "in vivo, Zea mays var. ceratina", "conditions": "50 g/ha, 12 days after treatment", "text": "as §1, §3"}, "[2]": {"test_system": "palmer amaranth, waterhemp, kochia, common ragweed and marestail", "assay": "Example 1 pot test, spray two days after sowing: herbicidal effects on weeds", "format": "in vivo", "conditions": "25 or 50 g per hectare; applied two days after sowing; 21 days after the treatment", "text": "as §1\nas §2, with “field corn, popcorn, sweet corn, waxy corn, palmer” for “Palmer”, “Two days later,” for “On the same day,”, “hectare.” for “hectare. On the next day, field corn, popcorn, sweet corn, and waxy corn are sown.”, “the treatment,” for “sowing corns,”"}, "palmer amaranth": {"test_system": "palmer amaranth", "assay": "Pot test, soil spray after sowing: herbicidal effect on palmer amaranth", "format": "in vivo, Amaranthus palmeri", "text": "as §1, §3, §4"}, "large crabgrass": {"test_system": "large crabgrass", "assay": "Pot test, soil spray after sowing: herbicidal effect on large crabgrass", "format": "in vivo, Digitaria sanguinalis", "text": "as §1, §3, §4"}, "field corn": {"test_system": "field corn", "assay": "Pot test, soil spray after sowing: crop injury on field corn", "format": "in vivo, Zea mays var. indentata and/or Zea mays var. indurata", "text": "as §1, §3\nas §3, with “Four” for “Three”, “sweet” for “sweet corn, two varieties of waxy”, “25” for “50”, “13” for “12”"}, "[3]": {"test_system": "palmer amaranth, waterhemp, kochia, common ragweed and marestail", "assay": "Example 2 pot test, spray the day before sowing corns: herbicidal effects on weeds", "format": "in vivo", "conditions": "25 or 50 g per hectare; applied on day of weed sowing, corns sown next day; 21 days after sowing corns", "text": "as §1, §2"}, "sweet corn": {"test_system": "sweet corn", "assay": "Pot test, soil spray after sowing: crop injury on sweet corn", "format": "in vivo, Zea mays var. saccharata", "text": "as §1, §3\nas §3, with “Four” for “Three”, “sweet” for “sweet corn, two varieties of waxy”, “25” for “50”, “13” for “12”"}, "[4]": {"test_system": "field corn, popcorn, sweet corn, waxy corn", "assay": "Example 1 pot test, spray two days after sowing: injuries on various corns", "format": "in vivo, Zea mays", "conditions": "25 or 50 g per hectare; applied two days after sowing; 21 days after the treatment", "text": "as §1\nas §2, with “field corn, popcorn, sweet corn, waxy corn, palmer” for “Palmer”, “Two days later,” for “On the same day,”, “hectare.” for “hectare. On the next day, field corn, popcorn, sweet corn, and waxy corn are sown.”, “the treatment,” for “sowing corns,”"}, "popcorn": {"test_system": "popcorn", "assay": "Pot test, soil spray after sowing: crop injury on popcorn", "format": "in vivo, Zea mays var. everta", "text": "as §1, §3\nas §3, with “Four” for “Three”, “sweet” for “sweet corn, two varieties of waxy”, “25” for “50”, “13” for “12”"}, "[5]": {"conditions": "25 g per hectare, 13 days after treatment"}, "[6]": {"conditions": "50 g per hectare, 12 days after treatment"}}}
{"smiles": "C#CCN1C(=O)C(F)(F)Oc2cc(F)c(-n3c(=O)n(C)c(=S)n(C)c3=O)cc21", "note": "[trifludimoxazin]", "values": [{"measurement": "injury on field corn compared with popcorn, sweet corn and waxy corn", "setting": "[1]", "value": "less than those on popcorn, sweet corn and waxy corn"}, {"measurement": "herbicidal effect (0 to 100)", "setting": "kochia; [5]", "value": 100}, {"measurement": "herbicidal effect (0 to 100)", "setting": "kochia; [6]", "value": 100}, {"measurement": "Injury score on corn (0 to 100)", "setting": "waxy corn; Waxy corn Ki-mochi", "value": 30}, {"measurement": "Injury score on corn (0 to 100)", "setting": "waxy corn; Waxy corn Shiro-mochi", "value": 40}, {"measurement": "herbicidal effects on all weeds", "setting": "[2]", "value": "High herbicidal effects"}, {"measurement": "herbicidal effect (0 to 100)", "setting": "palmer amaranth; [5]", "value": 100}, {"measurement": "herbicidal effect (0 to 100)", "setting": "palmer amaranth; [6]", "value": 100}, {"measurement": "herbicidal effect (0 to 100)", "setting": "large crabgrass; [5]", "value": 100}, {"measurement": "herbicidal effect (0 to 100)", "setting": "large crabgrass; [6]", "value": 100}, {"measurement": "Injury score on corn (0 to 100)", "setting": "field corn; Field corn DKC5632, 25 g/ha, 13 days after treatment", "value": 0}, {"measurement": "Injury score on corn (0 to 100)", "setting": "field corn; Field corn DKC5632, 50 g/ha, 12 days after treatment", "value": 10}, {"measurement": "Injury score on corn (0 to 100)", "setting": "field corn; Field corn Koshu, 25 g/ha, 13 days after treatment", "value": 0}, {"measurement": "Injury score on corn (0 to 100)", "setting": "field corn; Field corn Koshu, 50 g/ha, 12 days after treatment", "value": 5}, {"measurement": "Injury score on corn (0 to 100)", "setting": "field corn; Field corn MAS40F, 25 g/ha, 13 days after treatment", "value": 5}, {"measurement": "Injury score on corn (0 to 100)", "setting": "field corn; Field corn Pioneer 2088, 25 g/ha, 13 days after treatment", "value": 0}, {"measurement": "Injury score on corn (0 to 100)", "setting": "field corn; Field corn Pioneer 2088, 50 g/ha, 12 days after treatment", "value": 5}, {"measurement": "herbicidal effects on all weeds", "setting": "[3]", "value": "High herbicidal effects"}, {"measurement": "Injury score on corn (0 to 100)", "setting": "sweet corn; Sweet corn Ohisama, 25 g/ha, 13 days after treatment", "value": 20}, {"measurement": "Injury score on corn (0 to 100)", "setting": "sweet corn; Sweet corn Ohisama, 50 g/ha, 12 days after treatment", "value": 40}, {"measurement": "Injury score on corn (0 to 100)", "setting": "sweet corn; Sweet corn Rancher 82, 25 g/ha, 13 days after treatment", "value": 30}, {"measurement": "Injury score on corn (0 to 100)", "setting": "sweet corn; Sweet corn Rancher 82, 50 g/ha, 12 days after treatment", "value": 30}, {"measurement": "injury on field corn compared with popcorn, sweet corn and waxy corn", "setting": "[4]", "value": "less than those on popcorn, sweet corn and waxy corn"}, {"measurement": "Injury score on corn (0 to 100)", "setting": "popcorn; Popcorn Maru-pop, 25 g/ha, 13 days after treatment", "value": 20}, {"measurement": "Injury score on corn (0 to 100)", "setting": "popcorn; Popcorn Maru-pop, 50 g/ha, 12 days after treatment", "value": 50}, {"measurement": "Injury score on corn (0 to 100)", "setting": "popcorn; Popcorn Yuki-pop, 25 g/ha, 13 days after treatment", "value": 20}, {"measurement": "Injury score on corn (0 to 100)", "setting": "popcorn; Popcorn Yuki-pop, 50 g/ha, 12 days after treatment", "value": 40}]}
